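These data come from cells grown in 96-well plates and exposed to compound for 48 hours at five concentrations. The concentration for 50% growth inhibition is given as GI50.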 Calls of active or inactive are those of the source. Cut-off read from the data, not from the text of the source: active = GI50 up to about 1.1 µM and inactive = higher.
Tests used:
Test in all cases: growth of human tumour cells (NCI), 48 h
[1] = test system: HT-29
[2] = test system: HL-60
[3] = test system: Malme-3M
[4] = test system: UO-31
[5] = test system: LOX IMVI
[6] = test system: MCF7
[7] = test system: MDA-N
[8] = test system: SF-539
[9] = test system: SNB-19
[10] = test system: SF-268
[11] = test system: COLO 205
[12] = test system: MDA-MB-435
[13] = test system: HCT-15
[14] = test system: CCRF-CEM
[15] = test system: HCC 2998
[16] = test system: CAKI-1
[17] = test system: SK-OV-3
[18] = test system: OVCAR-3
[19] = test system: HOP-62
[20] = test system: K562

Clc1ccc(Oc2ccc(/N=C/c3ccc(Cl)cc3Cl)cc2Cl)cc1
GI50 [1]: 36.9 µM (inactive) | GI50 [2]: 9.2 µM (inactive) | GI50 [3]: 27.3 µM (inactive) | GI50 [4]: 21.6 µM (inactive) | GI50 [5]: 28.3 µM (inactive) | GI50 [6]: 33.7 µM (inactive) | GI50 [7]: 14.8 µM (inactive) | GI50 [8]: 23.6 µM (inactive) | GI50 [9]: 41.6 µM (inactive) | GI50 [10]: 31.8 µM (inactive) | GI50 [11]: 64.7 µM (inactive) | GI50 [12]: 18.5 µM (inactive) | GI50 [13]: 23.8 µM | GI50 [14]: 4.29 µM (inactive) | GI50 [15]: > 100 µM (inactive) | GI50 [16]: 36.5 µM (inactive) | GI50 [17]: 73.3 µM (inactive) | GI50 [18]: 33.8 µM (inactive) | GI50 [19]: 54.3 µM (inactive)

Cn1c2ccccc2c(=O)c2cccc(C(=O)NC(CS)C(=O)O)c21 (stereo not drawn)
GI50 [1]: > 100 µM (inactive) | GI50 [2]: < 0.01 µM (active) | GI50 [3]: > 100 µM (inactive) | GI50 [4]: > 100 µM (inactive) | GI50 [5]: 53.6 µM (inactive) | GI50 [6]: 40.9 µM (inactive) | GI50 [7]: > 100 µM (inactive) | GI50 [8]: 43.2 µM (inactive) | GI50 [9]: > 100 µM (inactive) | GI50 [10]: 93.5 µM (inactive) | GI50 [11]: 67.5 µM (inactive) | GI50 [12]: > 100 µM (inactive) | GI50 [13]: > 100 µM | GI50 [20]: 52.1 µM (inactive) | GI50 [15]: > 100 µM (inactive) | GI50 [16]: 32.8 µM (inactive) | GI50 [17]: > 100 µM (inactive) | GI50 [18]: > 100 µM (inactive) | GI50 [19]: > 100 µM (inactive)

CC(C)SC1SCC2C(=O)N(C)C3(CC3C)C(=O)OCC(NC(=O)c3nc4ccccc4cc3O)C(=O)NC(C)C(=O)N(C)C1C(=O)N(C)C1(CC1C)C(=O)OCC(NC(=O)c1nc3ccccc3cc1O)C(=O)NC(C)C(=O)N2C (stereo not drawn)
GI50 [1]: < 0.0001 µM (active) | GI50 [2]: < 0.0001 µM (active) | GI50 [3]: < 0.0001 µM (active) | GI50 [4]: < 0.0001 µM (active) | GI50 [5]: < 0.0001 µM (active) | GI50 [6]: < 0.0001 µM (active) | GI50 [7]: < 0.0001 µM (active) | GI50 [8]: < 0.0001 µM (active) | GI50 [9]: < 0.0001 µM (active) | GI50 [10]: < 0.0001 µM (active) | GI50 [11]: < 0.0001 µM (active) | GI50 [12]: < 0.0001 µM (active) | GI50 [13]: < 0.0001 µM | GI50 [14]: < 0.0001 µM (active) | GI50 [20]: < 0.0001 µM (active) | GI50 [15]: < 0.0001 µM (active) | GI50 [16]: < 0.0001 µM (active) | GI50 [17]: < 0.0001 µM (active) | GI50 [18]: < 0.0001 µM (active) | GI50 [19]: < 0.0001 µM (active)

COC1Cc2c(C)c(OC(C)=O)c3cccnc3c2O1 (stereo not drawn)
GI50 [1]: 43.8 µM (inactive) | GI50 [2]: 6.79 µM (inactive) | GI50 [3]: 13.8 µM (inactive) | GI50 [4]: 13.9 µM (inactive) | GI50 [6]: 18.9 µM (inactive) | GI50 [7]: 20.8 µM (inactive) | GI50 [8]: 48.2 µM (inactive) | GI50 [9]: > 100 µM (inactive) | GI50 [10]: 16 µM (inactive) | GI50 [11]: 91.8 µM (inactive) | GI50 [12]: 17.6 µM (inactive) | GI50 [13]: 10.4 µM | GI50 [14]: 10.7 µM (inactive) | GI50 [20]: 22.2 µM (inactive) | GI50 [15]: > 100 µM (inactive) | GI50 [16]: > 100 µM (inactive) | GI50 [17]: 26.9 µM (inactive) | GI50 [18]: 14.5 µM (inactive) | GI50 [19]: 25.1 µM (inactive)

CCOC(=O)N1CCN(c2nc(C)n(-c3ccccc3)c(=S)c2C#N)CC1
GI50 [1]: > 100 µM (inactive) | GI50 [2]: > 28.7 µM (inactive) | GI50 [4]: > 48 µM (inactive) | GI50 [5]: > 61.9 µM (inactive) | GI50 [6]: > 48.9 µM (inactive) | GI50 [7]: > 50 µM (inactive) | GI50 [8]: > 83.4 µM (inactive) | GI50 [9]: > 78.2 µM (inactive) | GI50 [10]: 63.1 µM (inactive) | GI50 [11]: > 100 µM (inactive) | GI50 [12]: > 74.6 µM (inactive) | GI50 [13]: > 55.6 µM | GI50 [14]: > 23.4 µM (inactive) | GI50 [20]: > 50 µM (inactive) | GI50 [15]: > 100 µM (inactive) | GI50 [16]: > 66.4 µM (inactive) | GI50 [17]: > 82.2 µM (inactive) | GI50 [18]: > 75 µM (inactive) | GI50 [19]: > 75.5 µM (inactive)

O=C(NNCc1ccccc1O)c1ccccc1O
GI50 [1]: 9.38 µM (inactive) | GI50 [2]: 0.495 µM (active) | GI50 [3]: 15.1 µM (inactive) | GI50 [4]: 1.92 µM (inactive) | GI50 [5]: 3.09 µM (inactive) | GI50 [6]: 12.5 µM (inactive) | GI50 [7]: 7.57 µM (inactive) | GI50 [8]: 16.5 µM (inactive) | GI50 [9]: 36.6 µM (inactive) | GI50 [11]: 7.93 µM (inactive) | GI50 [12]: 3.06 µM (inactive) | GI50 [13]: 1.19 µM | GI50 [14]: 0.735 µM (active) | GI50 [20]: 3.3 µM (inactive) | GI50 [15]: 4.01 µM (inactive) | GI50 [16]: 9.55 µM (inactive) | GI50 [17]: 7.71 µM (inactive) | GI50 [18]: 0.766 µM (active) | GI50 [19]: 7.52 µM (inactive)

O=C1CCCC/C1=C\c1ccc([N+](=O)[O-])cc1
GI50 [1]: 37.3 µM (inactive) | GI50 [2]: 42.5 µM (inactive) | GI50 [4]: 19.3 µM (inactive) | GI50 [5]: 1.79 µM (inactive) | GI50 [6]: 18.5 µM (inactive) | GI50 [7]: 17.8 µM (inactive) | GI50 [8]: 20.4 µM (inactive) | GI50 [9]: 17.1 µM (inactive) | GI50 [10]: 34.6 µM (inactive) | GI50 [11]: 18.4 µM (inactive) | GI50 [12]: > 10 µM (inactive) | GI50 [14]: 2.91 µM (inactive) | GI50 [20]: 2.82 µM (inactive) | GI50 [15]: 12.3 µM (inactive) | GI50 [16]: 18.5 µM (inactive) | GI50 [17]: 17.2 µM (inactive) | GI50 [18]: 27.5 µM (inactive) | GI50 [19]: 11.5 µM (inactive)
